Data on 3 substances can be found in article PMC11024197 (Nature Communications, 2024).

Where two headings read alike, the source gives them in different places.

For assay [1], the target named is T1, PEX14 NTD (Homo sapiens, UniProt O75381).
T1 construct: PEX14 NTD (1-104), expressed in E. coli with His6-SUMO tag, cleaved
The settings on record: SD, n = 3; read-out: KD (µM) (Suppl. Table 2); KD (nM) (Suppl. Table 4).
Protocol: Isothermal titration calorimetry (ITC) measurements were performed as triplicates at 25 °C using a MicroCal PEAQ-ITC (Malvern Instruments Ltd. U.K) calorimeter. Buffer conditions were 20 mM Tris pH 7.5, 50 mM NaCl. For all titrations a titrant dilution control experiment was performed and subtracted before the data were fitted to a one-site binding model using the Malvern Analysis software.
PEX13 SH3 at a concentration of 35-48 µM was titrated with purchased 15mer peptides containing (di)aromatic penta peptides from PEX5 or PEX5 1-76 (W0) at concentration of 0.7-0.6 mM and PEX13 350-403 (FxxxF) at a concentration of 0.9-1 mM. […] The concentration of PEX14 was corrected with the fit, since it cannot be accurate measured at 280 nm owing to the extinction coefficient of only 1490.

In assay [2] the target is T1, PEX14 NTD. Further details: method as in values quoted from other papers. The settings on record: cited from earlier work.

T1 sequence (O75381 1-104): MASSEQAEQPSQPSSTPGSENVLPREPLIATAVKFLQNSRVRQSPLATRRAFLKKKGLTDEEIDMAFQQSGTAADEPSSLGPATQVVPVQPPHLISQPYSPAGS

With PEX5 1-76 (contains […]) [PEX5 W0], the Kd at PEX14 NTD [1] was 0.0551 µM.
As to PEX13 residues 261-403 [PEX13 SH3-CTR], the Kd on PEX14 NTD [1] came out at 5.4 µM.
“PEX19 FxxxF motif (66-77 SQEKFFQELFDS in Fig. 3b; exact ligand of cited work not printed)”: the Kd at PEX14 NTD [2] is 9.2 µM.
